# Measurements from patent US11685726B2, “Pharmaceutical compositions of 6-(2-(2H-tetrazol-5-yl)ethyl)-6-fluorodecahydroisoquinoline-3-carboxylic acid and ester derivatives thereof” (Sea Pharmaceuticals LLC, priority 2020, dated 2023).
# Experiments:
# [1] = Hydrolysis by rat plasma in vitro at 37 degrees C; format: in vitro ADME
# [2] = In vitro stability in physiological buffers with or without fatty acid free BSA; format: physicochemical; conditions: 30 minutes at 37 degrees C
# [3] = tested on: Maximal Electroshock Seizure (MES) model in rats; assay: Maximal Electroshock Seizure (MES) model in rats; format: in vivo
# Source text: Adult male Carworth Farms (CF-1) mice (25-35 g) or young male Sprague-Dawley (SD) rats (100-150 g) were obtained from Charles River Laboratories Inc (Wilmington Mass. USA). CF1 mice were typically used for the 6 Hz psychomotor seizure model (6 Hz model described in the section below) but could also be used for the Maximal electroshock seizure (MES) model if performed in mice (Maximal electroshock seizure model described in the section below). SD rats were typically used for MES model but could also be used for 6 Hz psychomotor model if performed in rats. Animals were allowed free access to food and water, except during testing periods. After delivery from supplier lab to the in vivo pharmacology testing lab, animals were allowed sufficient time to acclimate to housing conditions prior to testing. Animals were housed in plastic cages in rooms with controlled humidity, ventilation, and lighting (12 hours lights on and 12 hours darkness). The animals were housed and fed in a manner consistent with the recommendations in the “Guide for Care and Use of Laboratory Animals” (National Research Council), and in accordance with guidelines set by an Institutional Animal Care and Use Committee (IACUC). Animal experiments were conducted in a manner consistent with Animal Research: Reporting of In Vivo Experiments (ARRIVE) guidelines (UK) and were approved by an IACUC. […]
# [4] = tested on: 6 Hz psychomotor seizure model in mice; assay: 6 Hz psychomotor seizure model in mice; format: in vivo, mouse; conditions: 0.5 hours, SPHA
# Source text: Adult male Carworth Farms (CF-1) mice (25-35 g) or young male Sprague-Dawley (SD) rats (100-150 g) were obtained from Charles River Laboratories Inc (Wilmington Mass. USA). CF1 mice were typically used for the 6 Hz psychomotor seizure model (6 Hz model described in the section below) but could also be used for the Maximal electroshock seizure (MES) model if performed in mice (Maximal electroshock seizure model described in the section below). SD rats were typically used for MES model but could also be used for 6 Hz psychomotor model if performed in rats. Animals were allowed free access to food and water, except during testing periods. After delivery from supplier lab to the in vivo pharmacology testing lab, animals were allowed sufficient time to acclimate to housing conditions prior to testing. Animals were housed in plastic cages in rooms with controlled humidity, ventilation, and lighting (12 hours lights on and 12 hours darkness). The animals were housed and fed in a manner consistent with the recommendations in the “Guide for Care and Use of Laboratory Animals” (National Research Council), and in accordance with guidelines set by an Institutional Animal Care and Use Committee (IACUC). Animal experiments were conducted in a manner consistent with Animal Research: Reporting of In Vivo Experiments (ARRIVE) guidelines (UK) and were approved by an IACUC. Test compounds or respective vehicle (placebo) were administered using an optimal fluid volume-to-body fluid ratio. Solutions or suspensions of test compounds, reference compounds or vehicles were administered to mice or rats in a volume of 0.01 mL/g body weight (mice) or 0.004 mL/g body weight (rats) by subcutaneous (s.c.) injection, intraperitoneal (i.p.) injection or by oral gavage (p.o.) unless otherwise indicated. Reference drug Levetiracetam or vehicle was administered by intraperitoneal (i.p.) injection.
# Mice are given a topical anesthetic on the cornea of each eye prior to placement of corneal electrodes. 6 Hz psychomotor seizures were induced in mice (usually 8 animals per group) using electrical stimulation via corneal electrodes (6 Hz, 0.2 millisecond rectangular pulse, 3 second duration at 22 mA using a Grass 48 stimulator instrument as described in Barton M E et al 2001. Epilepsy Res 47:217-227). Prior to placement of corneal electrodes for electrical stimulation 0.5% tetracaine in saline (Sigma) drops were applied to each eye. Seizures and behaviors that arise from the electrical stimulus in the 6 Hz model include a minor clonic seizure phase followed by stereotyped automatistic behaviors including stun, forelimb clonus, twitching of the vibrissae and Straub-tail. […] Animals not presenting any of these behaviors were considered “protected” from seizures. This serves as a screen for in vivo pharmacological activity of test articles or reference anti-epilepsy drugs and defines anti-seizure activity as shown in several publications [Barton M E et al. 2001. Epilepsy Res. 47:217-227; Barton M E et al. 2003 Epilepsy Res. 56:17-26; Brown W C et al. 1953. J Pharmacol Exp Ther 107:273-283. Metcalf C S et al. 2017a. Epilepsia 58:484-493.; Metcalf C S et al. 2017c. Epilepsia 58:239-246.
# Unless otherwise indicated pretreatment times of mice or rats were typically 0.5 hours for respective vehicle, Compounds 1, 3, 4, 6 or other compounds administered by subcutaneous or intraperitoneal route (unless other times indicated). A pretreatment time of 1 hour was used for Compounds 3, 4, 6 or other compounds administered by oral route unless other times indicated. Test compounds or respective vehicles were tested in some cases at other pretreatment times as indicated. A median effective dose (ED50) and 95% confidence interval (CI) were calculated using a Prism (Graphpad software). […]
# [5] = Rat behavior observations for signs of motor impairment by trained observer; format: in vivo; conditions: 6 mg/kg subcutaneous, rats, 30 minute observation period
# Experimental: Rat behavior pharmacology observations for signs of motor impairment by trained observer. Rats were monitored after dosing for any signs of impairment by Compound 1 administered as 6 mg/kg dose by subcutaneous route.
SMILES,hydrolysis to Compound 1 by rat plasma in vitro ([1]; incubated at 37 degrees C),hydrolysis by rat plasma after esterase inhibitor pretreatment ([1]; plasma pretreated 37 degrees C 5 min with 10 micromolar methyl arachidonoyl fluoro phosphonate),stability in physiological buffers [2],"MES Test Results (# rats protected from seizure/# rats tested) ([3]; 6 mg/kg S.C., 0.5 hours before corneal stimulus, SPHA formulation)","tolerability of treatment in MES study ([3]; rats, single acute systemic administration)",6 Hz Test Results (# mice protected from seizure/# mice tested) ([4]; 0.3 mg/kg s.c.),6 Hz Test Results (# mice protected from seizure/# mice tested) ([4]; 0.6 mg/kg s.c.),6 Hz Test Results (# mice protected from seizure/# mice tested) ([4]; 1 mg/kg s.c.),6 Hz Test Results (# mice protected from seizure/# mice tested) ([4]; 3 mg/kg s.c.),6 Hz Test Results (# mice protected from seizure/# mice tested) ([4]; 6 mg/kg s.c.),6 Hz Test Results (# mice protected from seizure/# mice tested) ([4]; 10 mg/kg s.c.),signs of motor impairment / tolerability or neurological changes [5]
"O=C(O)[C@@H]1C[C@H]2CC(F)(CCc3nnn[nH]3)CC[C@H]2CN1 (stereo in doubt) [Compound 2, (3S,4aS,6R,8aR)-6-fluoro-6-[2-(1H-1,2,3,4-tetrazol-5-yl)ethyl]-decahydroisoquinoline-3-carboxylic acid]",within minutes,blocked,stable,–,–,–,–,–,–,–,–,–
"O=C(O)[C@@H]1C[C@H]2C[C@@](F)(CCc3nnn[nH]3)CC[C@H]2CN1 [Compound 1, (3S,4aS,6S,8aR)-6-fluoro-6-[2-(1H-1,2,3,4-tetrazol-5-yl)ethyl]-decahydroisoquinoline-3-carboxylic acid]",–,–,–,6/6,well tolerated,1/8,3/8,3/8,5/8,7/8,8/8,No tolerability or neurological changes were observed
